Entries after “also recorded” stand apart in the source; their conditions may differ. One block for each compound: values may come before it. Residues, ends and D or L forms follow the SMILES beside them. Groups on a side chain read outwards from the residue. *: point of attachment. X1 = CC(=O)NC1C(O)[C@H](O)C(COS(=O)(=O)O)O[C@H]1OCCn1cc(CCC(=O)*)nn1; X2 = O=C(O)C1O[C@@H](OCCn2cc(CCC(=O)*)nn2)C(O)C(O)[C@@H]1O; Acetyl(2-(HOCH2CH2OCH2CH2O)) = O=C(COCCOCCO)*; AEEA = NCCOCCOCC(=O)O; Propionyl = CCC(=O)*
Legend:
[1] = test system: BMP-2 signaling in C2C12 cells; assay: C2C12 osteoblast differentiation with BMP-2, alkaline phosphatase (ALP) activity; format: cell-based, mouse; conditions: for effect on BMP-2 activity / osteoblast differentiation (in words) / level of ALP expression relative to BMP-2 alone (factor): C2C12, BMP-2 75 ng/mL
Procedure: (§1) C2C12 Cell Culture: C2C12 mouse myoblasts (ATCC) were maintained in Dulbecco's Modified Eagle's Medium with high glucose and L-glutamine (DMEM, ATCC), supplemented with 100 U/mL of penicillin and 100 μg/mL streptomycin (P/S, Life Technologies) and 10% heat inactivated FBS (Life Technologies), and passaged at 80-90% confluence. Media was changed every 2 days. Passages 3 to 8 were used for experiments. Cells were grown at 37° C., 5% CO2 in a humidified atmosphere. Cells were detached following a 3 minute incubation at 37° C. with 0.05% Trypsin-EDTA (Life Technologies), then resuspended in DMEM (10% FBS). Unless stated otherwise, cells were seeded at 75,000 cells/mL (400 μL/well in a 48-well plate), and allowed to attach for a minimum of 3 hours prior to experiments.
C2C12 Osteoblast Differentiation: PA samples were thermally annealed as described for Cryo-TEM. PA solutions were spun down, pipetted for homogeneous mixing, then diluted to 1 mM with DMEM (no FBS). In a 1.5 mL microcentrifuge tube, PA solutions were further diluted with DMEM (5% FBS), gently vortexed, and appropriate amounts of GFs (20 μg/mL) were added to yield [PA]=125 μM and [GF]=375 ng/mL. For mixing, the microcentrifuge tube was gently inverted several times by hand. Following, cells were treated by adding a 100 μl, of the PA/GF mixture per well (48-well plate), yielding a final 500 μl, differentiation medium with [PA]=25 μM and [GF]=75 ng/mL. For controls, the initial 5 mM PA solution was substituted with either PBS alone (saline) or heparin in PBS at appropriate concentrations. Cells were cultured for 3 days without changing the media, and osteoblast differentiation was assessed.
Alkaline Phosphatase Activity: Alkaline phosphatase (ALP) activity was measured as a marker of osteoblast differentiation (ref. 38; incorporated by reference in its entirety). On day 3, media was removed, and cells were lysed with a 100 μL, of M-PER Mammalian Protein Extraction Reagent (Life Technologies), supplemented with 1×Halt Protease Inhibitor Cocktail (Thermo Fisher Scientific), for 30 minutes on an orbital shaker. A 20 μL, volume of the cell lysate was incubated with 200 μL, of the QUANTI-Blue colorimetric ALP assay (InvivoGen) for 30 minutes to 2 hours at 37° C., in duplicates. The ALP activity was assessed by reading the OD at 630 nm with Cytation3 microplate reader (BioTek). Data were normalized to the respective endogenous DNA levels using Quant-iT PicoGreen dsDNA Assay Kit (Life Technologies). Two separate experiments with 4 replicates each were averaged for statistical analysis. […]

[2] = Zeta potential measurements; format: physicochemical
Procedure: Zeta Potential Measurements: Zeta (ζ) potential was measured using a Malvern Zetasizer Nano ZS (n=3). PA samples were thermally annealed as described for Cryo-TEM. Following, PAs were diluted to 0.5 mM in DMEM. PA solutions were water-bath sonicated for 1 min prior to zeta potential measurement. Background reading from DMEM alone was subtracted from the final measurements.

[3] = test system: BMP-4 signaling in C2C12 cells; assay: C2C12 osteoblast differentiation with BMP-4, ALP activity; format: cell-based, mouse
Procedure: as §1
C2C12 Osteoblast Differentiation: PA samples were thermally annealed as described for Cryo-TEM. PA solutions were spun down, pipetted for homogeneous mixing, then diluted to 1 mM with DMEM (no FBS). […] Cells were cultured for 3 days without changing the media, and osteoblast differentiation was assessed.
Alkaline Phosphatase Activity: Alkaline phosphatase (ALP) activity was measured as a marker of osteoblast differentiation (ref. 38; incorporated by reference in its entirety). […] The ALP activity was assessed by reading the OD at 630 nm with Cytation3 microplate reader (BioTek). […]

BMP-2 [4] = target: T1, BMP-2 (Homo sapiens, UniProt P12643); assay: BMP-2 stability assay (ELISA) in C2C12 culture; format: cell-based; conditions: 75 ng/mL BMP-2; 0, 3, 9, 24 h
T1 construct: purchased Medtronic Sofamor Danek (Minneapolis, Minn.)
T1 sequence (P12643 283-396): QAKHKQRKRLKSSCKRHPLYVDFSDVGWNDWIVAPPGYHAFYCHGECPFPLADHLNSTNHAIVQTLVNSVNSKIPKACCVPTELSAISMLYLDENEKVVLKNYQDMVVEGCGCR
Procedure: BMP-2 Stability Assay: C2C12 cells were seeded at 150,000 cells/mL (500 μL/well in a 48-well plate) and incubated overnight. Following, the media was replaced with treatment media (75 ng/mL BMP-2 in the presence/absence of PA 1, PA 4, and monosaccharide 1. The media was collected at 0, 3, 9, and 24 h and stored at −80° C. prior to BMP-2 quantification. In addition, the cell monolayers were lysed at the indicated time with a 100 μL of M-PER Mammalian Protein Extraction Reagent, supplemented with 1×Halt Protease Inhibitor Cocktail, and also stored at −80° C. prior to BMP-2 quantification. The amount of BMP-2 present in the media and cell extracts was assayed using a BMP-2 Quantikine ELISA kit (R&D Systems) according to the manufacturer's specifications.

BMP-4 = target: T2, BMP-4 (Homo sapiens, UniProt P12644); assay: SPR binding to BMP-4; conditions: azide-derivative, not assembled
T2 construct: from E. coli were purchased from PeproTech, in their mature forms; purchased PeproTech; host or cells: E. coli
T2 sequence (P12644 293-408): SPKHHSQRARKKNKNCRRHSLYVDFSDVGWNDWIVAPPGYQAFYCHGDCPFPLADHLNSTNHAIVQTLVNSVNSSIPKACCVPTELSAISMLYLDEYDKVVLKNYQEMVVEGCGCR
Procedure: (§2) Surface Plasmon Resonance: The binding interactions between PAs (analytes) and growth factors (ligands) were analyzed via surface plasmon resonance (SPR) using a ProteON XPR36 system (Bio-Rad Laboratories). PA samples were thermally annealed as described for Cryo-TEM. PA solutions were spun down, pipetted for homogeneous mixing, and sequentially diluted to appropriate concentrations using Tween buffer (Milli-Q water, 0.05% Tween-20). Lyophilized powders of GFs were reconstituted to 5 μM without any carrier proteins according to the manufacturer's instructions. BMP-2, BMP-4, Shh, VEGF, and FGF-2 were further diluted to 200 nM in ProteOn Acetate Buffer pH 5.5, while FGF-1 was diluted to 200 nM in ProteOn Acetate Buffer pH 4.5. Noggin was diluted to 300 nM in ProteOn Acetate Buffer pH 5.5.
(§3) GFs were immobilized on a ProteOn GLC-Chip via amino coupling as described previously, with slight modifications (37). First, the alginate surface was activated with a freshly prepared mixture of 20 mM 1-Ethyl-3-[3-dimethylaminopropyl]carbodiimide hydrochloride (EDC) and 5 mM N-hydroxysulfosuccinimide (Sulfo-NHS) in Milli-Q water (vertical flow cells, 30 μL/min, 3 min). […] Interaction data were evaluated using the BIAEvaluation 4.1 software. […]

BMP-2 [5] = target: T1, BMP-2; assay: SPR binding to BMP-2; conditions: azide-derivative, not assembled
Procedure: as §2, §3

[6] = test system: BMP-2, BMP-4, noggin, Shh, VEGF, FGF-1, FGF-2; assay: Surface plasmon resonance (SPR) binding to immobilized heparin binding GFs; design: species or system human (Noggin murine); conditions: analytes 50-500 nM; GFs immobilized on alginate surface; 25° C.
Procedure: as §2
GFs were immobilized on a ProteOn GLC-Chip via amino coupling as described previously, with slight modifications (37). First, the alginate surface was activated with a freshly prepared mixture of 20 mM 1-Ethyl-3-[3-dimethylaminopropyl]carbodiimide hydrochloride (EDC) and 5 mM N-hydroxysulfosuccinimide (Sulfo-NHS) in Milli-Q water (vertical flow cells, 30 μL/min, 3 min). Following, GFs were immobilized on vertical flow cells 1 to 5 by perfusing a freshly prepared 200 nM (or 300 nM) solution over the activated alginate surface (30 μL/min, 5 min). Blank buffer was perfused on vertical cell 6 as a reference. The remaining esters were deactivated with 1 M ethanolamine (30 μL/min, 3 min). The association and dissociation phases were performed at 25° C. in Tween buffer. Prior to each analyte injection, the horizontal flow cells 1 to 6 were regenerated with 10 mM NaOH (100 μL/min, 30 sec) and washed once with Tween buffer (30 μL/min, 3 min). Varied analyte concentrations were injected to horizontal flow cells 1 to 5, with flow cell 6 as a reference (30 μL/min, 5 min), followed by dissociation with Tween buffer (30 μL/min, 10 min). For analysis, SPR sensorgram from the reference flow cell was subtracted from all measurement flow cells. Interaction data were evaluated using the BIAEvaluation 4.1 software. […]

Compound: CCC(=O)N[C@H](C(=O)N[C@H](C(=O)N[C@@H](C)C(=O)N[C@@H](C)C(=O)N[C@@H](CCC(=O)O)C(=O)N[C@@H](CCC(=O)O)C(=O)N[C@@H](CCCCNC(=O)COCCOCCNC(=O)CCc1cn(CCO[C@@H]2OC(COS(=O)(=O)O)[C@@H](O)C(O)C2NC(C)=O)nn1)C(N)=O)C(C)C)C(C)C (stereo partly drawn) [PA 2, 6S-GlcNAc PA] (Propionyl-VVAAEEK([AEEA-X1])-NH2)
increase in BMP-2 signaling (ALP activity) ([1]; nanofibers containing the monosulfated monosaccharide, density not stated, 25 μM PA, BMP-2 75 ng/mL): 3 fold | zeta potential / net charge of nanofibers [2]: comparable zeta potentials

zeta potential / net charge of nanofibers [2]: screened the net negative charge
Compound: CCC(=O)N[C@H](C(=O)N[C@H](C(=O)N[C@@H](C)C(=O)N[C@@H](C)C(=O)N[C@@H](CCC(=O)O)C(=O)N[C@@H](CCC(=O)O)C(=O)N[C@@H](CCCCNC(=O)COCCOCCO)C(N)=O)C(C)C)C(C)C [PA 5, OEG PA] (Propionyl-VVAAEEK(Acetyl(2-(HOCH2CH2OCH2CH2O)))-NH2)
effect on BMP-2 activity / osteoblast differentiation (in words) ([1]; 3 days): negligible effect

BMP-2 stability in cell culture media (BMP-2 [4]): not | binding to BMP-4 (SPR) (BMP-4): bound neither | binding to BMP-2 (SPR) (BMP-2 [5]): bound neither | binding to heparin binding GFs (SPR) [6]: essentially does not bind
Compound: 2-Azidoethyl 2-acetamido-3,4,6-tri-O-sulfo-2-deoxy-β-D-glycopyranoside [monosaccharide 1]
amplification of BMP-4 signaling [3]: not to be the case | effect on BMP-2 activity / osteoblast differentiation (in words) ([1]; 3 days): not to be the case

Compound: CCC(=O)N[C@H](C(=O)N[C@H](C(=O)N[C@@H](C)C(=O)N[C@@H](C)C(=O)N[C@@H](CCC(=O)O)C(=O)N[C@@H](CCC(=O)O)C(=O)N[C@@H](CCCCNC(=O)COCCOCCNC(=O)CCc1cn(CCO[C@@H]2OC(C(=O)O)[C@@H](O)C(O)C2O)nn1)C(N)=O)C(C)C)C(C)C (stereo partly shown) [PA 3, GlcA PA] (Propionyl-VVAAEEK([AEEA-X2])-NH2)
effect on BMP-2 activity / osteoblast differentiation (in words) ([1]; 3 days): did not potentiate | ALP activity, PA co-assembled with PA 6 ([1]; incorporated at the level of 10% or higher in PA 6, 25 μM PA, BMP-2 75 ng/mL): not to enhanced | zeta potential / net charge of nanofibers [2]: comparable zeta potentials

Compound: CCC(=O)N[C@H](C(=O)N[C@H](C(=O)N[C@@H](C)C(=O)N[C@@H](C)C(=O)N[C@@H](CCC(=O)O)C(=O)N[C@@H](CCC(=O)O)C(N)=O)C(C)C)C(C)C [PA 6, E2 PA] (Propionyl-VVAAEE-NH2)
increase in ALP activity ([1]; PA 6 alone, 0% monosaccharide density, 25 μM PA, BMP-2 75 ng/mL, 3 days): 5 fold

Compound: Heparan sulfate [reference compound]
effect on BMP-2 activity / osteoblast differentiation (in words) ([1]; 3 days): dose response increase | level of ALP expression relative to BMP-2 alone (factor) ([1]; 3 days): 3

binding to heparin binding GFs (SPR) [6]: moderate binding
Compound: heparin [reference compound]
effect on BMP-2 activity / osteoblast differentiation (in words) ([1]; 3 days): dose response increase; also recorded: more potent response than HS | level of ALP expression relative to BMP-2 alone (factor) ([1]; 3 days): 5

Source: US11497788B2, “Supramolecular glycosaminoglycans” (Northwestern University, priority 2015, dated 2022)
